Each cell line was assayed with CC(C)=CC[C@@H](O)C1=CC(=O)c2c(O)ccc(O)c2C1=O [Shikonin] + Nc1nc2[nH]cc(CCc3ccc(C(=O)N[C@@H](CCC(=O)O)C(=O)O)cc3)c2c(=O)[nH]1 [Pemetrexed] (partner 0.2 µM) (assay: relative viability (nuclei count vs DMSO), 5 days (fraction); higher = more cells survive). Settings: first compound 0.01 µM.
Method in brief: (§1)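 Relative viability was taken as the ratio of nuclei in treated wells to nuclei in vehicle wells. Lung cancer cell lines in 1536-well plates received compounds by pin tool one day after seeding, either one drug alone or a fixed anchor-drug dose plus five library-drug doses (not always all listed) in √10 steps. Nuclei were counted on 4× images after 5 days of treatment, and values are medians of duplicate plates.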

Cell Line	relative viability
NCI-H2342	0.808
PC-14	0.15
NCI-H1650	0.35
NCI-H2009	1.11
NCI-H1993	0.561
NCI-H520	0.801
PC-3 [JPC-3]	1.21
LCLC-103H	0.436
NCI-H647	0.194
NCI-H2228	0.314
EMC-BAC-2	0.44
NCI-H2087	0.675
HCC-366	0.172
NCI-H1666	0.869
NCI-H650	0.87
LK-2	0.311
NCI-H2126	0.758

Cell Line	relative viability
NCI-H1648	0.793
SK-MES-1	0.923
H3255	0.592
COR-L23	0.188
COR-L 105	1.1
LOU-NH91	0.367
ChaGo-K-1	0.266
NCI-H2170	0.25
HCC-44	0.652
NCI-H522	0.937
SW 900	0.422
NCI-H1395	0.84
NCI-H1792	0.819
NCI-H1793	0.808
NCI-H1563	0.769
NCI-H1944	0.625
NCI-H358	0.159

Same assay, conditions: first compound 0.1 µM

Cell Line	relative viability
NCI-H2342	0.852
PC-14	0.137
NCI-H1650	0.403
NCI-H2009	1.06
NCI-H1993	0.619
NCI-H520	0.784
PC-3 [JPC-3]	1.44
LCLC-103H	0.49
NCI-H647	0.174
NCI-H2228	0.355
EMC-BAC-2	0.503
NCI-H2087	0.706
HCC-366	0.185
NCI-H1666	0.854
NCI-H650	0.987
LK-2	0.3
NCI-H2126	0.716

Cell Line	relative viability
SK-MES-1	1.17
H3255	0.563
COR-L23	0.19
COR-L 105	1.09
LOU-NH91	0.381
ChaGo-K-1	0.279
NCI-H2170	0.284
HCC-44	0.678
NCI-H522	1
SW 900	0.548
NCI-H1395	0.944
NCI-H1792	0.82
NCI-H1793	1.05
NCI-H1563	0.846
NCI-H1944	0.719
NCI-H358	0.182

Same assay, conditions: first compound 0.3162 µM

Cell Line	relative viability
NCI-H2342	0.809
PC-14	0.125
NCI-H1650	0.331
NCI-H2009	1.09
NCI-H1993	0.557
NCI-H520	0.689
PC-3 [JPC-3]	1.05
LCLC-103H	0.46
NCI-H647	0.183
NCI-H2228	0.38
EMC-BAC-2	0.453
NCI-H2087	0.626
HCC-366	0.161
NCI-H1666	0.916
NCI-H650	1.13
LK-2	0.306
NCI-H2126	0.777

Cell Line	relative viability
NCI-H1648	0.979
SK-MES-1	0.984
H3255	0.605
COR-L23	0.208
COR-L 105	1.05
LOU-NH91	0.381
ChaGo-K-1	0.266
NCI-H2170	0.282
HCC-44	0.667
NCI-H522	1.3
SW 900	0.468
NCI-H1395	0.85
NCI-H1792	0.689
NCI-H1793	0.798
NCI-H1563	0.897
NCI-H1944	0.676
NCI-H358	0.172

Same assay, conditions: first compound 1 µM

Cell Line	relative viability
NCI-H2342	0.804
PC-14	0.135
NCI-H1650	0.274
NCI-H2009	1.05
NCI-H1993	0.627
NCI-H520	0.604
PC-3 [JPC-3]	1.63
LCLC-103H	0.477
NCI-H647	0.156
NCI-H2228	0.355
EMC-BAC-2	0.422
NCI-H2087	0.69
HCC-366	0.15
NCI-H1666	0.861
NCI-H650	0.857
LK-2	0.266
NCI-H2126	0.656

Cell Line	relative viability
NCI-H1648	0.742
SK-MES-1	1.01
H3255	0.577
COR-L23	0.206
COR-L 105	1.02
LOU-NH91	0.458
ChaGo-K-1	0.258
NCI-H2170	0.272
HCC-44	0.637
NCI-H522	1.22
SW 900	0.535
NCI-H1395	1.01
NCI-H1792	0.958
NCI-H1793	1.11
NCI-H1563	0.845
NCI-H1944	0.572
NCI-H358	0.154

What follows are cell lines tested with CC(C)N(CCCNC(=O)Nc1ccc(C(C)(C)C)cc1)C[C@H]1O[C@@H](n2ccc3c(N)ncnc32)[C@H](O)[C@@H]1O + CC(C)C[C@H](NC(=O)[C@H](Cc1ccccc1)NC(=O)c1cnccn1)B(O)O [Bortezomib] (partner 0.002 µM) in the same assay as above. Settings: first compound 0.08 µM.
Method in brief: as §1

Cell Line	relative viability
PC-14	0.83
NCI-H1650	0.185
EBC-1	0.508
NCI-H1703	0.244
NCI-H2009	1.05
NCI-H1993	0.96
NCI-H520	0.581
PC-3 [JPC-3]	0.79
LCLC-103H	1.09
NCI-H647	0.761
NCI-H2228	0.788
EMC-BAC-2	1
NCI-H2087	0.861
Calu-6	1.02
HCC-366	0.996
NCI-H1666	0.802
NCI-H650	0.785
NCI-H2126	1.03
H3255	0.867

Source: the supplement of paper PMC10307832
